Consider 36 compounds from patent US20240368181A1, “QUINOXALINE DERIVATIVES AND USES THEREOF” (Black Diamond Therapeutics, Inc., priority 2021, published 2024).

Holding throughout (format): cell-based
Test [1] has as its system UM-UC-14 (FGFR3-S249C) cells. In words: cell proliferation assay (CellTiterGlo), UM-UC-14 cells. Conditions: UMUC14, 72 h. Put shortly: (§1)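 Each line was seeded and treated with varying compound concentrations or vehicle. Proliferation was read as CellTiterGlo ATP luminescence, and IC50 values were calculated from growth relative to vehicle-treated wells.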
Test [2] has as its system RT-112 (FGFR3-Tacc3 fusion) cells. In words: cell proliferation assay (CellTiterGlo), RT-112 cells. To be noted: Homo sapiens, RT-112, RT112 cells, 72 hours. A digest of the protocol:
as §1

Test [3] relates to DMS-114 (FGFR1 overexpression) cells. As to the kind of experiment: cell proliferation assay (CellTiterGlo), DMS-114 cells. Conditions: Homo sapiens, DMS-114, 72 h. Put shortly: as §1
In test [4] the test system is SNU-16 (FGFR2-amplification) cells. In words: cell proliferation assay (CellTiterGlo), SNU-16 cells. Conditions: Homo sapiens, 72 hours. Put shortly: as §1
In general terms: ATP-based viability assays read luminescence as a measure of living cells.

With `Cc1nc2ccc(Oc3ccc4ncc(-c5cnn(CCC6CCN(C)CC6)c5)nc4c3Cl)cc2[nH]1` [Compound 305], the 50% inhibitory concentration (IC50) in test [1] was less than 20 nM; in test [2] it was less than 20 nM; in test [3], 100 to 400 nM; in test [4], less than 20 nM.
In the case of `Cc1nc2ccc(Oc3ccc4ncc(-c5cnn(CC(=O)N6CCC(O)C6)c5)nc4c3Cl)cc2[nH]1` (stereo not drawn) [Compound 306], the half-maximal inhibitory concentration (IC50) in test [1] is 100 to 400 nM; in test [2] it was 20 to 100 nM; in test [3], no less than 400 nM; in test [4], 100 to 400 nM.
As to `Cc1nc2ccc(Oc3ccc4ncc(-c5cnn(C[C@@H]6CCS(=O)(=O)C6)c5)nc4c3Cl)cc2[nH]1` [Compound 307], the concentration for half-maximal inhibition (IC50) is 20 to 100 nM in test [1], less than 20 nM in test [2], 100 to 400 nM in test [3] and less than 20 nM in test [4].
As to `Cc1nc2ccc(Oc3ccc4ncc(-c5cnn(CC6CC(=O)C6)c5)nc4c3Cl)cc2[nH]1` [Compound 308], the concentration for half-maximal inhibition (IC50) in test [1] is 20 to 100 nM; in test [2], 20 to 100 nM; in test [3], no less than 400 nM; in test [4], 20 to 100 nM.
As to `Cc1nc2ccc(Oc3ccc4ncc(-c5cnn(C6CC(N7CC(O)C7)C6)c5)nc4c3Cl)cc2[nH]1` (stereo not drawn) [Compound 309], the IC50 was in the range of 20 to 100 nM in test [1], 20 to 100 nM in test [2], 100 to 400 nM in test [3] and 20 to 100 nM in test [4].
Consider `Cc1nc2ccc(Oc3ccc4ncc(-c5cnn(CC6CN(CC#N)C6)c5)nc4c3Cl)cc2[nH]1` [Compound 310], for which the IC50 in test [1] was 20 to 100 nM; in test [2], 20 to 100 nM; in test [3], no less than 400 nM; in test [4], 20 to 100 nM.
With `Cc1nc2ccc(Oc3ccc4ncc(-c5cnn(C[C@H]6CCS(=O)(=O)C6)c5)nc4c3Cl)cc2[nH]1` [Compound 311], the 50% inhibitory concentration (IC50) was 20 to 100 nM in test [1], less than 20 nM in test [2], 100 to 400 nM in test [3] and less than 20 nM in test [4].
As for `Clc1c(Oc2ccn3cncc3c2)ccc2ncc(-c3cnn(CC4CCN(C5COC5)CC4)c3)nc12` [Compound 312], the half-inhibitory concentration (IC50) in test [1], in test [2], in test [3] and in test [4] was no less than 400 nM throughout.
In the case of `CNC(=O)N1CC2CC1CC2Cn1cc(-c2cnc3ccc(Oc4ccc5nc(C)[nH]c5c4)c(Cl)c3n2)cn1` (stereo not drawn) [Compound 313], the half-maximal inhibitory concentration (IC50) in test [1] is 20 to 100 nM; in test [2], 20 to 100 nM; in test [3] it was no less than 400 nM; in test [4] it was 20 to 100 nM.
`Cc1nc2ccc(Oc3ccc4ncc(-c5cnn(CC6CN(CC(=O)N7CC(O)C7)C6)c5)nc4c3Cl)cc2[nH]1` [Compound 314]: the IC50 in test [1] lay in the range of 100 to 400 nM; in test [2], 20 to 100 nM; in test [3] it was 100 to 400 nM; in test [4], 20 to 100 nM.
In the case of `CNC(=O)CN1CC(Cn2cc(-c3cnc4ccc(Oc5ccc6nc(C)[nH]c6c5)c(Cl)c4n3)cn2)C1` [Compound 315], the IC50 in test [1] is 20 to 100 nM; in test [2] it was 20 to 100 nM; in test [3] it was no less than 400 nM; in test [4], 20 to 100 nM.
For `COCCN1CCC(n2cc(-c3cnc4ccc(Oc5ccc6nc(C)[nH]c6c5)c(Cl)c4n3)cn2)CC1` [Compound 316], the half-maximal inhibitory concentration (IC50) in test [1] was 20 to 100 nM; in test [2] it was 20 to 100 nM; in test [3], no less than 400 nM; in test [4], 20 to 100 nM.
For the compound `Cc1nc2ccc(Oc3ccc4ncc(-c5cnn(CC(=O)N6CC(O)C6)c5)nc4c3Cl)cc2[nH]1` [Compound 317], the half-maximal inhibitory concentration (IC50) was no less than 400 nM in test [1], 100 to 400 nM in test [2], no less than 400 nM in test [3] and 20 to 100 nM in test [4].
With `Cc1nc2ccc(Oc3ccc4ncc(-c5cnn(C6(CCO)CCNCC6)c5)nc4c3Cl)cc2[nH]1` [Compound 318], the IC50 in test [1], in test [2], in test [3] and in test [4] was no less than 400 nM each time.
As to `Cc1nc2ccc(Oc3ccc4ncc(-c5cnn(CC(=O)N6CCC6)c5)nc4c3Cl)cc2[nH]1` [Compound 319], the IC50 in test [1] was 20 to 100 nM; in test [2] it was 20 to 100 nM; in test [3], no less than 400 nM; in test [4] it was 20 to 100 nM.
For `Cc1nc2ccc(Oc3ccc4ncc(-c5cnn(CC6CN(CC(=O)N7CCC7)C6)c5)nc4c3Cl)cc2[nH]1` [Compound 320], the IC50 is 100 to 400 nM in test [1], 20 to 100 nM in test [2], no less than 400 nM in test [3] and 20 to 100 nM in test [4].
On to `CNC(=O)N1CCC(n2cc(-c3cnc4ccc(Oc5ccc6nc(C)[nH]c6c5)c(Cl)c4n3)cn2)CC1` [Compound 321], for which the IC50 in test [1] was 20 to 100 nM; in test [2], 20 to 100 nM; in test [3], no less than 400 nM; in test [4] it was 20 to 100 nM.
As to `CNC(=O)CN1CCC(n2cc(-c3cnc4ccc(Oc5ccc6nc(C)[nH]c6c5)c(Cl)c4n3)cn2)CC1` [Compound 322], the IC50 in test [1] was 20 to 100 nM; in test [2], less than 20 nM; in test [3], no less than 400 nM; in test [4], 20 to 100 nM.
As to `Cc1nc2ccc(Oc3ccc4ncc(-c5cnn([C@H]6C[C@@H](N7CCOCC7)C6)c5)nc4c3Cl)cc2[nH]1` [Compound 323], the half-maximal inhibitory concentration (IC50) in test [1] was 20 to 100 nM; in test [2], 20 to 100 nM; in test [3], no less than 400 nM; in test [4] it was less than 20 nM.
For `Cc1nc2ccc(Oc3ccc4ncc(-c5cnn([C@H]6C[C@H](N7CCOCC7)C6)c5)nc4c3Cl)cc2[nH]1` [Compound 324], the half-inhibitory concentration (IC50) in test [1] was 20 to 100 nM; in test [2], 20 to 100 nM; in test [3], no less than 400 nM; in test [4], 20 to 100 nM.
Regarding `Cc1nc2ccc(Oc3ccc4ncc(-c5cnn(CC6CC(O)C6)c5)nc4c3Cl)cc2[nH]1` (stereo not drawn) [Compound 325], the 50% inhibitory concentration (IC50) is 20 to 100 nM in test [1], less than 20 nM in test [2], no less than 400 nM in test [3] and less than 20 nM in test [4].
For the compound `Cc1nc2ccc(Oc3ccc4ncc(-c5cnn(CC(N)=O)c5)nc4c3Cl)cc2[nH]1` [Compound 326], the 50% inhibitory concentration (IC50) is 100 to 400 nM in test [1], 100 to 400 nM in test [2], no less than 400 nM in test [3] and 20 to 100 nM in test [4].
Regarding `Cc1nc2ccc(Oc3ccc4ncc(-c5cnn(CC6CCC(=O)CC6)c5)nc4c3Cl)cc2[nH]1` [Compound 327], the half-inhibitory concentration (IC50) in test [1] was less than 20 nM; in test [2] it was less than 20 nM; in test [3], no less than 400 nM; in test [4], less than 20 nM.
On to `Cc1nc2ccc(Oc3ccc4ncc(-c5cnn(CC6CC7CC6CN7C(N)=O)c5)nc4c3Cl)cc2[nH]1` (stereo not drawn) [Compound 328], for which the concentration for half-maximal inhibition (IC50) in test [1] was 20 to 100 nM; in test [2] it was 20 to 100 nM; in test [3], no less than 400 nM; in test [4] it was 20 to 100 nM.
As to `Cc1nc2ccc(Oc3ccc4ncc(-c5cnn(CC6CC7CC6CN7CC(N)=O)c5)nc4c3Cl)cc2[nH]1` (stereo not drawn) [Compound 329], the IC50 is less than 20 nM in test [1], less than 20 nM in test [2], 100 to 400 nM in test [3] and less than 20 nM in test [4].
For the compound `Cc1nc2ccc(Oc3ccc4ncc(-c5cnn(C6CCN(CC(N)=O)CC6)c5)nc4c3Cl)cc2[nH]1` [Compound 330], the IC50 is 20 to 100 nM in test [1], less than 20 nM in test [2], no less than 400 nM in test [3] and less than 20 nM in test [4].
Take `Cc1nc2ccc(Oc3ccc4ncc(-c5cnn(C6CC7CC6CN7C6COC6)c5)nc4c3Cl)cc2[nH]1` (stereo not drawn) [Compound 331]: the IC50 in test [1] is 20 to 100 nM; in test [2], less than 20 nM; in test [3] it was no less than 400 nM; in test [4], less than 20 nM.
`Cc1nc2cc(Oc3ccc4ncc(-c5cnn(CC(=O)N6CCC(F)(F)CC6)c5)nc4c3Cl)ccc2[nH]1` [Compound 332]: the concentration for half-maximal inhibition (IC50) was 20 to 100 nM in test [1], 20 to 100 nM in test [2], no less than 400 nM in test [3] and 20 to 100 nM in test [4].
As to `Cc1nc2ccc(Oc3ccc4ncc(-c5cnn(C6CCN(C(C)C)CC6)c5)nc4c3Cl)cc2[nH]1` [Compound 333], the half-maximal inhibitory concentration (IC50) was 20 to 100 nM in test [1], 20 to 100 nM in test [2], no less than 400 nM in test [3] and 20 to 100 nM in test [4].
For the compound `Cc1nc2ccc(Oc3c(C)cc4ncc(-c5cnn(CC6CCN(C)CC6)c5)nc4c3Cl)cc2[nH]1` [Compound 334], the half-inhibitory concentration (IC50) in test [1], in test [2], in test [3] and in test [4] was no less than 400 nM each time.
On to `CO[C@H]1CC[C@H](Cn2cc(-c3cnc4ccc(Oc5ccc6nc(C)[nH]c6c5)c(Cl)c4n3)cn2)CC1` [Compound 335], for which the IC50 in test [1] was 20 to 100 nM; in test [2], 20 to 100 nM; in test [3] it was no less than 400 nM; in test [4] it was 20 to 100 nM.
Regarding `CO[C@H]1CC[C@@H](Cn2cc(-c3cnc4ccc(Oc5ccc6nc(C)[nH]c6c5)c(Cl)c4n3)cn2)CC1` [Compound 336], the half-maximal inhibitory concentration (IC50) in test [1] is 20 to 100 nM; in test [2], 20 to 100 nM; in test [3], no less than 400 nM; in test [4] it was 20 to 100 nM.
Consider `Cc1nc2ccc(Oc3ccc4ncc(-c5cnn(C[C@]67C[C@H](CO6)C7)c5)nc4c3Cl)cc2[nH]1` [Compound 337], for which the IC50 was 20 to 100 nM in test [1], 20 to 100 nM in test [2], no less than 400 nM in test [3] and 20 to 100 nM in test [4].
Turning to `Cc1nc2ccc(Oc3ccc4ncc(-c5cnn(CC6CCC(N(C)C)CC6)c5)nc4c3Cl)cc2[nH]1` (stereo not drawn) [Compound 338], the IC50 fell in the range of 20 to 100 nM in test [1], 20 to 100 nM in test [2], 100 to 400 nM in test [3] and 20 to 100 nM in test [4].
For the compound `Cc1nc2ccc(Oc3ccc4ncc(-c5cnn(CC6CCC(O)CC6)c5)nc4c3Cl)cc2[nH]1` (stereo not drawn) [Compound 339], the IC50 was less than 20 nM in test [1], less than 20 nM in test [2], 100 to 400 nM in test [3] and less than 20 nM in test [4].
`Cc1nc2ccc(Oc3ccc4ncc(-c5cnn(C6CCN(C7COC7)CC6)c5)nc4c3Cl)cc2[nH]1` [Compound 340]: the IC50 in test [1] is 20 to 100 nM; in test [2] it was less than 20 nM; in test [3], 100 to 400 nM; in test [4] it was less than 20 nM.

What is called IC50 is the concentration that gives 50% inhibition.
